Measured values: ChEMBL document CHEMBL1201862, “PubChem BioAssay data set” (2004)
Activity calls are given as the source filed them.

Assays:
[1] = NIH/3T3 cell viability loss – mouse embryonic fibroblasts, dry powder, set 2, cytotoxicity control, dose response (AID 493247); type: functional, cell-based; details: Fibroblast
Trypanosoma cruzi = test: anti-trypanosomal activity in host cells – cell-based, plate reader, dry powder, set 3, dose response (AID 493197); type: functional
[2] = microbe, parasite or virus in culture; type: functional; details: Mycobacterium tuberculosis
Beta-galactosidase = Beta-galactosidase (Escherichia coli, UniProt Q8VNN2); test: detection-enzyme interference by beta-gal modulators – biochemical, E. coli enzyme, set 3, artefact control for CCR6 antagonist project, dose response (AID 504712); type: functional
[3] = Luminescence Cell-Based Dose Retest to Confirm Inhibitors of Cancer Stem Cells. [Related pubchem assays (depositor defined):AID2717, AID2721]; type: functional; details: Homo sapiens
[4] = target: Eukaryotic translation initiation factor 4H (Homo sapiens, UniProt Q15056); test: inhibitors of translation initiation factor eIF4H – SAR follow-up (AID 435011); type: functional
[5] = target: Polyadenylate-binding protein 1 (Homo sapiens, UniProt P11940); test: PABP inhibition in translation initiation, SAR follow-up (AID 435018); type: functional
HeLa = test: viability loss in HeLa cells – cell-based, 24 h, cherry-picked samples, cytotoxicity control, dose response (AID 504726); type: functional; details: Homo sapiens;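 also: potency for cytotoxicity as loss of luminescence signal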
[6] = bead-based luminescence quenchers, dual-tagged ARNT – biochemical, AlphaScreen, cherry-pick, artefact control for ARNT-TACC3 interaction inhibitor project, dose response (AID 651705); type: functional;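 also: AlphaScreen bead proximity signal that flags compounds interfering with the detection technology; potency reflects signal decrease which marks the compound as an assay artifact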
Keap1/Nrf2 = Keap1/Nrf2 (Homo sapiens, UniProt Q14145); test: disruptors of Keap1 binding to Nrf2 peptide – biochemical, fluorescence polarization, cherry-picked samples, dose response (AID 588683)
[7] = target: T1, RNA-binding protein pos-1 (Caenorhabditis elegans, UniProt G5EF15); test: disruptors of C. elegans POS-1 RNA interaction – biochemical, fluorescence polarization, dose response (AID 1964);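 also: purified POS-1 fused to maltose binding protein made in E. coli; potency of compounds blocking POS-1 binding to fluorescent RNA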
T1 sequence (G5EF15 whole entry): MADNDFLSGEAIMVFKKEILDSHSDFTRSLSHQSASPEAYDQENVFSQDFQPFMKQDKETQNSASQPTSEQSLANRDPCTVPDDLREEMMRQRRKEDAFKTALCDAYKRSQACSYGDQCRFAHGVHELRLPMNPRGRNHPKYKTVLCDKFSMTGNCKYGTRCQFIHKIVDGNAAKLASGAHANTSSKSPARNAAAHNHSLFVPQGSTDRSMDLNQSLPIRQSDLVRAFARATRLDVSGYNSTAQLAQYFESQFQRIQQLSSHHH

ORF 73 = ORF 73 (Human herpesvirus 8, UniProt O40947); test: KSHV LANA DNA-binding disruption – biochemical, fluorescence polarization, cherry-picked samples, dose response (AID 504725); parameters: species or system Human gammaherpesvirus 8;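 also: fluorescence polarization of a labeled DNA duplex reporting LANA DNA binding; potency is for inhibitors that block LANA binding to the DNA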
Large T antigen = Large T antigen (Simian virus 40, UniProt P03070); type: functional, Betapolyomavirus macacae;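 also: Confirmatory-stage PubChem screen for compounds that inhibit SV40 T antigen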
Caspase-6 = target: T2, Caspase-6 (Homo sapiens, UniProt P55212); test: inhibition of CASP6 peptide cleavage – biochemical, VEID-R110 fluorescence, cherry-pick, dose response (AID 720632)
T2 sequence (P55212 whole entry): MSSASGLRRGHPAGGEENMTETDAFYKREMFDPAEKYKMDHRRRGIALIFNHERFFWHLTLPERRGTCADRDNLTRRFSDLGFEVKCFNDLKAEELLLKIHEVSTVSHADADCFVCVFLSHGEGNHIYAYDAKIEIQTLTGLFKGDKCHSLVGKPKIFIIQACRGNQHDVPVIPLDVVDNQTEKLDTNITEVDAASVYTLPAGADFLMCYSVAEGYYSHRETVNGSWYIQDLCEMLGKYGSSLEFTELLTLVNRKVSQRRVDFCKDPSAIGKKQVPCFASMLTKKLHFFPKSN

[8] = target: T3, Long-chain-fatty-acid--AMP ligase FadD28 (Mycobacterium tuberculosis, UniProt P9WQ59); test: Fluorescence polarization aasay to screen for inhibitors that compete for the binding of FadD28 to a bisubstrate Measured in Biochemical System Using Plate Reader - 2147-01_Inhibitor_Dose_CherryPick_Activity.; type: functional, Mycobacterium tuberculosis H37Rv
T3 sequence (P9WQ59 whole entry): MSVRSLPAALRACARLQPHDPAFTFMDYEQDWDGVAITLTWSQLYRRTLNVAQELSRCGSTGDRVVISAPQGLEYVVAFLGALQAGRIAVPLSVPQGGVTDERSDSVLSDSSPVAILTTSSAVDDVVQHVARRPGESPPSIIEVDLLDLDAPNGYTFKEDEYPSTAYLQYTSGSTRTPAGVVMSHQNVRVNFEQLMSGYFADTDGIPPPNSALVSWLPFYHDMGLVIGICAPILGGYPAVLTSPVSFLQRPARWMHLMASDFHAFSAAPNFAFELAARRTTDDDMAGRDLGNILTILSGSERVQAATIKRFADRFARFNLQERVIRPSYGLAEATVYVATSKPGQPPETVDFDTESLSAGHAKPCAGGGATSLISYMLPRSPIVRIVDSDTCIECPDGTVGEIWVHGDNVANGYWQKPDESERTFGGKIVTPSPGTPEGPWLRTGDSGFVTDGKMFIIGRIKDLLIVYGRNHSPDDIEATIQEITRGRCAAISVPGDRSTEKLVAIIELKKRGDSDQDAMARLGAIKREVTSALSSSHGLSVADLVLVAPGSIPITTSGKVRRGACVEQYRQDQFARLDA

[9] = target: T4, Zinc finger protein mex-5 (Caenorhabditis elegans, UniProt Q9XUB2); test: potency of MEX-5 RNA-binding blockers – biochemical, C. elegans, fluorescence polarization, dose response (AID 1960)
T4 sequence (Q9XUB2 whole entry): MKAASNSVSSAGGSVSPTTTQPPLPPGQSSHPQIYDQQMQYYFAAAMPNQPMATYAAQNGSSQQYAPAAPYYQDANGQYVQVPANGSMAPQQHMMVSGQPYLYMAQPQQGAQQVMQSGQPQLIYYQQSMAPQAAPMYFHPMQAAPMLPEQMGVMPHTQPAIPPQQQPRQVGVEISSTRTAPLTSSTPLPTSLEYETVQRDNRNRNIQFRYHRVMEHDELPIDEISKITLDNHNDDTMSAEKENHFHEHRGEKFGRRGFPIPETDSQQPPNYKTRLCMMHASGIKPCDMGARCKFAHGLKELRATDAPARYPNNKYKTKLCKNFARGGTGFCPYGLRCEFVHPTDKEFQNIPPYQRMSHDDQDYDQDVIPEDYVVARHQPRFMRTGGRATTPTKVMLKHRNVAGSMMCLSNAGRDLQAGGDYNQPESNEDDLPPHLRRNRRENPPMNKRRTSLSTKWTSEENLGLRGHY

[10] = target: Glutathione-S-transferase (Schistosoma japonicum, UniProt Q26513); test: GST-antibody interaction or FRET quenching – biochemical, TR-FRET, artefact control for Vif-APOBEC3G degradation inhibitor project, dose response (AID 1117362); type: functional
[11] = target: T5, Heat shock 70 kDa protein 1A (Homo sapiens, UniProt P0DMV8); test: small-molecule inhibition of Hsp70 – biochemical, TR-FRET (AID 786)
H4 = test: Luminescence Cell-Based Dose Response HTS to Identify Activators of 5'UTR Stem-Loop Driven Prion Protein mRNA Translation in H4 Neuroglioblastoma Cells. [Related pubchem assays: 1829 (Project Summary), 1814 (Primary HTS)]; type: functional; details: Homo sapiens
[12] = Luminescence Cell-Based Dose Confirmation HTS to Identify Activators of 5'UTR Stem-Loop Driven Alpha-Synuclein mRNA Translation in H4 Neuroglioblastoma Cells. [Related pubchem assays: 1829 (Project Summary), 1814 (Primary HTS)]; type: functional
[13] = target: T6, Tyrosine-protein phosphatase non-receptor type 7 (Homo sapiens, UniProt P35236); test: redox-active compounds inhibiting HePTP phosphatase – biochemical, fluorescence, mechanism study (AID 2068); type: functional
T6 sequence (P35236 whole entry): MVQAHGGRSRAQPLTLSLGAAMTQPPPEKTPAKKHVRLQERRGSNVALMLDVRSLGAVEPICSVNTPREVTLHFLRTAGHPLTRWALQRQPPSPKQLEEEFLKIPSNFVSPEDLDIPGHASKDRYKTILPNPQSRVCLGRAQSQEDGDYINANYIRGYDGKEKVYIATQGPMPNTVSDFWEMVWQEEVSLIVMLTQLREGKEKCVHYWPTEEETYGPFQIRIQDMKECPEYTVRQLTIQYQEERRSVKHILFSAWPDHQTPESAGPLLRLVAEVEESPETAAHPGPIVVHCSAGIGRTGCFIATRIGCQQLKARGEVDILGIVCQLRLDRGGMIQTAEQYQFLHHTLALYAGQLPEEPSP

[14] = target: Induced myeloid leukemia cell differentiation protein Mcl-1 (Homo sapiens, UniProt Q07820); type: functional
[15] = target: Eukaryotic translation initiation factor 4E (Mus musculus, UniProt P63073); test: blockers of eIF4G binding by eIF4E – biochemical, TR-FRET, dose response (AID 855); type: functional;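 also: potency for disrupting eIF4E binding to eIF4GI seen as loss of FRET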
[16] = target: T5, Heat shock 70 kDa protein 1A; test: small molecules displacing fluorescent ligand from Hsp70 – biochemical, fluorescence polarization, primary screen (AID 583)
[17] = Luminescence Cell-Based Dose Response HTS to Identify Activators of Luciferase Translation or Activity in H4 […] Cells. [Related pubchem assays: 1829 (Project Summary), 1814 (Primary HTS)]; type: functional
Troponin, cardiac muscle = Troponin, cardiac muscle (Homo sapiens, UniProt P19429+P45379+P63316); test: compounds desensitizing RTF to calcium – biochemical, fluorescence, cardiac regulated thin filaments, triplicate IC50, dose response (AID 504742); type: protein-complex assay
[18] = target: Dual specificity protein phosphatase 3 (Homo sapiens, UniProt P51452); test: SAR VHR1 Fluorescent Assay for In Vitro dose response studies Set 2. [Related pubchem assays (depositor defined):AID1654, AID1661, AID1878]; type: functional
Coagulation factor XII = target: T7, Coagulation factor XII (Homo sapiens, UniProt P00748); type: functional;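 also: activated factor XIIa alpha cleaving a fluorogenic AMC peptide substrate; inhibitor potency from loss of enzyme activity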
T7 sequence (P00748 whole entry): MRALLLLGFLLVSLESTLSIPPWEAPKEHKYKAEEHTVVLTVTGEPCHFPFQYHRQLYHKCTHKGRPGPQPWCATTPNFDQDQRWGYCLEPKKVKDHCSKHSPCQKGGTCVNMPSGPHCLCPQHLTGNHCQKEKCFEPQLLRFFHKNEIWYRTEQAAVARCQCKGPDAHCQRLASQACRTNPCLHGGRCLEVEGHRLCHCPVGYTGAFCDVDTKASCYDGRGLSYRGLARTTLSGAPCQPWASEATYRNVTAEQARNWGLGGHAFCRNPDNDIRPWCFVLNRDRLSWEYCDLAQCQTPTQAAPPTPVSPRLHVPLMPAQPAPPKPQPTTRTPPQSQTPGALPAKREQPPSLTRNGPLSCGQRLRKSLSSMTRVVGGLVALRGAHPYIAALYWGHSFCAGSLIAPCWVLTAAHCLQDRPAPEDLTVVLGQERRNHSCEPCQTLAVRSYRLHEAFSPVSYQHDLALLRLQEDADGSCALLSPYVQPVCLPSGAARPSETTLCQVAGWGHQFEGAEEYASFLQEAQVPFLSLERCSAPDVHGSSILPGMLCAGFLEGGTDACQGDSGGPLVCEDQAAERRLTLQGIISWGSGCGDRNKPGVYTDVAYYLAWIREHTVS

[19] = target: T6, Tyrosine-protein phosphatase non-receptor type 7; test: SAR analysis of chemical inhibitors of HePTP using a Fluorescent assay - Set 2. [Related pubchem assays (depositor defined):AID1059, AID1077, AID1661, AID2085, AID521]; type: functional
[20] = target: Potassium voltage-gated channel subfamily KQT member 2 (Rattus norvegicus, UniProt O88943); test: potentiation of rat KCNQ2 current – cell-based, retigabine-insensitive compounds, dose response (AID 2654); type: functional
Sequence of Potassium voltage-gated channel subfamily KQT member 2 (O88943 whole entry): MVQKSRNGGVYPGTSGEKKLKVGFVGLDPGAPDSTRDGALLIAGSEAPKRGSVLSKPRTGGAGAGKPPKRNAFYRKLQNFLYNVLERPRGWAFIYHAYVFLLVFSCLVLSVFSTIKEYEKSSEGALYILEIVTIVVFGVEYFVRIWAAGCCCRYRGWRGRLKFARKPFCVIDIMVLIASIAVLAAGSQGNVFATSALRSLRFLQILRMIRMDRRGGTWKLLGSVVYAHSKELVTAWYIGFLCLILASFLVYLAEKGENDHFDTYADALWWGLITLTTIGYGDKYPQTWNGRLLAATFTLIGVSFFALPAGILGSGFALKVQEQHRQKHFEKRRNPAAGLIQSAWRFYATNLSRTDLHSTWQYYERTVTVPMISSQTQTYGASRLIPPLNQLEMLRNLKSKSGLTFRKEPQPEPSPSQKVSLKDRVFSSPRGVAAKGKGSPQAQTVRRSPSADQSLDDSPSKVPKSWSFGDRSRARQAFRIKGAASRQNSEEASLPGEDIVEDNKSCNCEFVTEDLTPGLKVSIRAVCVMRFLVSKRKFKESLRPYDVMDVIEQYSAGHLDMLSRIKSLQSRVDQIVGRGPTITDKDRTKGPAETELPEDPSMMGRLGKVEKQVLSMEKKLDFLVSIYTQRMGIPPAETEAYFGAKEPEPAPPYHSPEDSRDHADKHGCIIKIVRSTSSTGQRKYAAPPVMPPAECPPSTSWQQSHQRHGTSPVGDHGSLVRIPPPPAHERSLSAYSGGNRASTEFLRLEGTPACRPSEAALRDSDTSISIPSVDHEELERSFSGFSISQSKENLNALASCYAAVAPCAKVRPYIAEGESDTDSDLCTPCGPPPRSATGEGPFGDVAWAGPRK

T5 sequence (P0DMV8 whole entry): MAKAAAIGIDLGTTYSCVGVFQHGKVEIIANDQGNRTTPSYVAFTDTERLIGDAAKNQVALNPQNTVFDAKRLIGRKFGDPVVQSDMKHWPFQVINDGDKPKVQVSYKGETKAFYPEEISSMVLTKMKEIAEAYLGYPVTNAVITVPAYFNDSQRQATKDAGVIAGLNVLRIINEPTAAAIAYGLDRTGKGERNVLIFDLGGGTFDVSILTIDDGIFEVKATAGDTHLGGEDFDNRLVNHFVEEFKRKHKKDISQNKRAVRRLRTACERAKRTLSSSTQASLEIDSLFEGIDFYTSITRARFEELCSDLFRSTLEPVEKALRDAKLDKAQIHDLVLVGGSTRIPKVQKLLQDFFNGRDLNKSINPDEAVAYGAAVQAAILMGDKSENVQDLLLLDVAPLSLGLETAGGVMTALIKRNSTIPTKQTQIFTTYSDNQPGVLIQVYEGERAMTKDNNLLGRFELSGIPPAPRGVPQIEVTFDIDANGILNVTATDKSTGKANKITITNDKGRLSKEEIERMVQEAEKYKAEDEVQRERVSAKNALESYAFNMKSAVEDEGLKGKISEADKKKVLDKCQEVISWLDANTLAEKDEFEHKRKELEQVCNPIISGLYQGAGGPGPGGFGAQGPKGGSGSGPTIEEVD
Sequence of Large T antigen (P03070 whole entry): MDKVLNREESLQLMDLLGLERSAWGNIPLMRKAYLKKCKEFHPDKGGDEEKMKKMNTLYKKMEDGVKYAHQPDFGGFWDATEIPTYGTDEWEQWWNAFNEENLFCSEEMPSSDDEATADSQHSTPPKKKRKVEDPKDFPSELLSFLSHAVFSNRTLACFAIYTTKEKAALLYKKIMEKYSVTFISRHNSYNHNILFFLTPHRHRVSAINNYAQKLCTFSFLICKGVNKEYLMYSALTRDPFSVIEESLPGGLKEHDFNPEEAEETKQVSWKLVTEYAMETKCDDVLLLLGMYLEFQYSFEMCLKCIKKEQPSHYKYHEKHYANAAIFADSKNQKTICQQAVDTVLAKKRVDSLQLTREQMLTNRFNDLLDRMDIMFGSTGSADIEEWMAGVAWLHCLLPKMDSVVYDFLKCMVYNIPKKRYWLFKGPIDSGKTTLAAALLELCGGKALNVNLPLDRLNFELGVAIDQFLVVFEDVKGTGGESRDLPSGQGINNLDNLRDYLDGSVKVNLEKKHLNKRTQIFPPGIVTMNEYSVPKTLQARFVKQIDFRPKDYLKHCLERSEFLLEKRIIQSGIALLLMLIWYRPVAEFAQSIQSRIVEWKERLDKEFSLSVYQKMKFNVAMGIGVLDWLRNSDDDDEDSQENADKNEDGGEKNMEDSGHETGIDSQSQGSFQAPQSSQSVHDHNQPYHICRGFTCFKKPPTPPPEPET
Sequence of Eukaryotic translation initiation factor 4E (P63073 whole entry): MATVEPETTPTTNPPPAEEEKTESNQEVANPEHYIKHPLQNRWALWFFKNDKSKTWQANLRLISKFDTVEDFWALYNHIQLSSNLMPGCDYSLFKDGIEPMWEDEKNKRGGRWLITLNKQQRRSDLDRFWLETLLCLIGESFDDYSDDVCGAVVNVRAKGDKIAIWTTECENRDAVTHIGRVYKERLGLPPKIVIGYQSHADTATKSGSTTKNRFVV
Sequence of Beta-galactosidase (Q8VNN2 whole entry): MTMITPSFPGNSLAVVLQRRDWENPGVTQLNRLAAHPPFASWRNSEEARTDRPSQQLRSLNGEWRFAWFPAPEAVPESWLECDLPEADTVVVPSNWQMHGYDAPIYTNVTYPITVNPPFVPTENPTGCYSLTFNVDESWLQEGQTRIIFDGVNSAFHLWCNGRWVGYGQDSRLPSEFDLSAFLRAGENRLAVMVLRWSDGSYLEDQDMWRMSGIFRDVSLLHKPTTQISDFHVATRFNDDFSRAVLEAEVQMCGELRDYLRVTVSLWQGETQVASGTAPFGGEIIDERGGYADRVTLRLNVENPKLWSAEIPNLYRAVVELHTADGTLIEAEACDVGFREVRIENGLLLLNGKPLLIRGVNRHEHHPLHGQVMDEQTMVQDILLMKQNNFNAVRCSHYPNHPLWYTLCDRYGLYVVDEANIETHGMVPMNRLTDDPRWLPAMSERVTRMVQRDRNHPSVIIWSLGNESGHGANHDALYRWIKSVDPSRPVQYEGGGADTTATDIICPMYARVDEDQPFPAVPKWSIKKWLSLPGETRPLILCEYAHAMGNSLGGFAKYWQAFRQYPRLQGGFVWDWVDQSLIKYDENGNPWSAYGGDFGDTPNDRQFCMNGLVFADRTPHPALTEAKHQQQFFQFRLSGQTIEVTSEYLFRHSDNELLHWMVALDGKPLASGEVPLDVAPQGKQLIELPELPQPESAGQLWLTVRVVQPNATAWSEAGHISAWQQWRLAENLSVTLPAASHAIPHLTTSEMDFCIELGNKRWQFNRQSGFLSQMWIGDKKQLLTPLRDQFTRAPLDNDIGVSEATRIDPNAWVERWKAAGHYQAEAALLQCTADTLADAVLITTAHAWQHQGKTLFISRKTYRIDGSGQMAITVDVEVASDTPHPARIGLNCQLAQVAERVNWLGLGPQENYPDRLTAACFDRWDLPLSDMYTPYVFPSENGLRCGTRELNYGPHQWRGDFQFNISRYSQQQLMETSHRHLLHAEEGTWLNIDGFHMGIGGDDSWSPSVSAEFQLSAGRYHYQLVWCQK
Sequence of Glutathione-S-transferase (Q26513 whole entry): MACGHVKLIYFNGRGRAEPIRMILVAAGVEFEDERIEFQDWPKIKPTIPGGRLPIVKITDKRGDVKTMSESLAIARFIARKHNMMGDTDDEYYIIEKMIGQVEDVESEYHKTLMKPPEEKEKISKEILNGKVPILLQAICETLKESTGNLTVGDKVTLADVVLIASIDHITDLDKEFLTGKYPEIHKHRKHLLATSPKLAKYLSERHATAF
Sequence of Dual specificity protein phosphatase 3 (P51452 whole entry): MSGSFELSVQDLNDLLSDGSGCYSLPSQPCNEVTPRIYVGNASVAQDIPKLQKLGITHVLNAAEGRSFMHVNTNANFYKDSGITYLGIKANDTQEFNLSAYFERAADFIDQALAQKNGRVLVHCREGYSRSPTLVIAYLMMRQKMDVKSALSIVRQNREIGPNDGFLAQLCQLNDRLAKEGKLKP
Sequence of Polyadenylate-binding protein 1 (P11940 whole entry): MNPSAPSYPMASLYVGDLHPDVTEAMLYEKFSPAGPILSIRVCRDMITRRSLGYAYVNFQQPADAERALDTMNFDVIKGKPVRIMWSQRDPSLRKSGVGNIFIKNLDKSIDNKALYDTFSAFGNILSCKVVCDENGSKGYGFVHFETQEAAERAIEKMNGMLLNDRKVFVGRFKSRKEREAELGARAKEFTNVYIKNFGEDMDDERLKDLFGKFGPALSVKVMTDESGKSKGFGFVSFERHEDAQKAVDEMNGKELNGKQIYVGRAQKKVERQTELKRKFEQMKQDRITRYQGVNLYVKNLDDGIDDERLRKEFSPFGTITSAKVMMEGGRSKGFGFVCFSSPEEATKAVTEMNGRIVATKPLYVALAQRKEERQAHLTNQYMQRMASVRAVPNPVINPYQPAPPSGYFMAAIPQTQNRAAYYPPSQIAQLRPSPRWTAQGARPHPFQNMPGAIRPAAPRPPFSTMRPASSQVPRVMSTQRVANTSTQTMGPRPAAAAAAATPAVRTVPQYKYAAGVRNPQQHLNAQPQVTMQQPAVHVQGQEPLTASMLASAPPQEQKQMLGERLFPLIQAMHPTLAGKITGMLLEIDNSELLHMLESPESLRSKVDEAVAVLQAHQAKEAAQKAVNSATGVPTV

For `COc1ccc(CCN(C)C(=O)C2CCCN(Cc3ccccc3Cl)C2)cc1OC` (configuration not stated), the AC50 [1] was 46.8 µM (active) and the AC50 (Trypanosoma cruzi) was 13.7 µM (active).

In the case of `CNC(CC(=O)c1ccc([N+](=O)[O-])cc1)C(Cl)(Cl)Cl` (configuration not stated), the CC50 [2] is reported as > 40 µM (active), the IC50 (Beta-galactosidase) is reported as > 66.6 µM (inactive) and the AC50 [3] is reported as 2.3 µM (active).

In the case of `COc1ccc(C(=O)N/N=C\c2ccc(OCC(=O)Nc3ccc(C)c(C)c3)c(OC)c2)cc1`, the IC50 [4] is reported as > 100 µM (inactive) and the IC50 [5] is reported as > 100 µM (inactive).

In the case of `NS(=O)(=O)c1ccc(N=Nc2cnc(O)c(O)c2)cc1`, the AC50 (HeLa) is reported as 43.8 µM (active), the AC50 [6] is reported as 135 µM (active) and the AC50 (Keap1/Nrf2) is reported as 17.1 µM (active). The EC50 [7] was 5.41 µM (active), the AC50 (ORF 73) was 19.5 µM (active) and the IC50 (Large T antigen) was 27.5 µM (active). For the same molecule, the AC50 (Caspase-6) was 3.44 µM (active), the AC50 [8] was 22.8 µM (active) and the EC50 [9] was 0.421 µM (active).

For `O=C(Nc1ccc2nc(-c3ccco3)c(-c3ccco3)nc2c1)NC1CC1`, the IC50 [10] was 75.5 µM (active), the IC50 [11] was > 100 µM (not active) and the EC50 (H4) was > 120 µM (not active). For the same molecule, the EC50 [12] was > 120 µM (not active), the IC50 [13] was 1.34 µM (active) and the IC50 [14] was 2.92 µM (active). For the same molecule, the IC50 [15] was 33.1 µM (inactive), the IC50 (Large T antigen) was 39.6 µM (active) and the IC50 [16] was 73.3 µM (active). For the same molecule, the EC50 [17] was 13.2 µM (active) and the IC50 (Troponin, cardiac muscle) was 47.5 µM (inactive).

With `Nc1c(C(=O)NCc2cccnc2)sc(=S)n1-c1ccccc1` the IC50 [18] was 78 µM (active), the IC50 [15] was > 64 µM (inactive) and the IC50 (Coagulation factor XII) was > 50 µM (inactive). The IC50 [19] was > 100 µM (inactive).

For `O=C(NCc1ccc(Cl)cc1Cl)Nc1ccc(F)nc1`, the EC50 [20] was 6.31 µM (active).
